This is an account of results in patent US20120100990A1, “4 -AMINOPICOLINATES AND THEIR USE AS HERBICIDES” (SYNGENTA CROP PROTECTION LLC, priority 2009, published 2012).

Holding throughout (type): in vivo
The test system of assay [1] is Alopecurus myosuroides (ALOMY). Put plainly: Pre-emergence biological efficacy, glasshouse pot test. The following applies: evaluated after 13 days, 100=total damage, 0=no damage, read-out: Percentage damage caused to weed species, pre-emergence, ALOMY; for pest or weed control at 1000 g/ha: 312 h, 1,000 g/ha. The procedure: (§1) Seeds of Alopecurus myosuroides (ALOMY), Setaria faberi (SETFA), Echinochloa crus-galli (ECHCG), Solanum nigrum (SOLNI), Amaranthus retroflexus (AMARE) and Ipomea hederaceae (IPOHE) were sown in standard soil in pots. After cultivation for one day under controlled conditions in a glasshouse (at 24/16° C., day/night; 14 hours light; 65% humidity), the plants were sprayed with an aqueous spray solution derived from the formulation of the technical active ingredient in acetone/water (50:50) solution containing 0.5% Tween 20 (polyoxyethylene sorbitan monolaurate, CAS RN 9005-64-5) to give a final dose of 1000 or 250 g/ha of test compound. The test plants were then grown under controlled conditions in the glasshouse (at 24/16° C., day/night; 14 hours light; 65% humidity) and watered twice daily. After 13 days the test was evaluated (100=total damage to plant; 0=no damage to plant).

The test system of assay [2] is Amaranthus retroflexus (AMARE). The assay is described as above. The following applies: evaluated after 13 days, 100=total damage, 0=no damage, read-out: Percentage damage caused to weed species, pre-emergence, AMARE; for pest or weed control at 1000 g/ha: 312 h, 1,000 g/ha. The method, then: as §1
In assay [3] the test system is Echinochloa crus-galli (ECHCG). The description is as above. To be noted: evaluated after 13 days, 100=total damage, 0=no damage, read-out: Percentage damage caused to weed species, pre-emergence, ECHCG; for pest or weed control at 1000 g/ha: 312 h, 1,000 g/ha. The procedure:
as §1

Assay [4] deals with Ipomea hederaceae (IPOHE). Described as above. To be noted: Ipomoea hederacea, evaluated after 13 days, 100=total damage, 0=no damage, read-out: Percentage damage caused to weed species, pre-emergence, IPOHE; for pest or weed control at 1000 g/ha: 312 h, 1,000 g/ha. The method, then: as §1
The test system of assay [5] is Setaria faberi (SETFA). Described as above. To be noted: evaluated after 13 days, 100=total damage, 0=no damage, read-out: Percentage damage caused to weed species, pre-emergence, SETFA; for pest or weed control at 1000 g/ha: 312 h, 1,000 g/ha. The method, then: as §1
Assay [6] relates to Solanum nigrum (SOLNI). Described as above. The following applies: evaluated after 13 days, 100=total damage, 0=no damage, read-out: Percentage damage caused to weed species, pre-emergence, SOLNI; for pest or weed control at 1000 g/ha: 312 h, 1,000 g/ha. The procedure:
as §1

Assay [7] concerns Alopecurus myosuroides (ALOMY). Put plainly: Post-emergence biological efficacy, glasshouse pot test. To be noted: evaluated after 13 days, 100=total damage, 0=no damage, read-out: Percentage damage caused to weed species, post-emergence, ALOMY; for pest or weed control at 1000 g/ha: 312 h, 1,000 g/ha. The method, then: as §1, with “for 8 days” for “for one day”, “grown on” for “grown”, “in a” for “in the”

In assay [8] the test system is Amaranthus retroflexus (AMARE). Described as above. The following applies: evaluated after 13 days, 100=total damage, 0=no damage, read-out: Percentage damage caused to weed species, post-emergence, AMARE; for pest or weed control at 1000 g/ha: 312 h, 1,000 g/ha. The procedure:
as §1, with “for 8 days” for “for one day”, “grown on” for “grown”, “in a” for “in the”

Assay [9] concerns Echinochloa crus-galli (ECHCG). Described as above. To be noted: evaluated after 13 days, 100=total damage, 0=no damage, read-out: Percentage damage caused to weed species, post-emergence, ECHCG; for pest or weed control at 1000 g/ha: 312 h, 1,000 g/ha. The procedure:
as §1, with “for 8 days” for “for one day”, “grown on” for “grown”, “in a” for “in the”

Assay [10] has as its system Ipomea hederaceae (IPOHE). The description is as above. To be noted: Ipomoea hederacea, evaluated after 13 days, 100=total damage, 0=no damage, read-out: Percentage damage caused to weed species, post-emergence, IPOHE; for pest or weed control at 1000 g/ha: 312 h, 1,000 g/ha. The procedure:
as §1, with “for 8 days” for “for one day”, “grown on” for “grown”, “in a” for “in the”

Assay [11] relates to Setaria faberi (SETFA). The description is as above. The following applies: evaluated after 13 days, 100=total damage, 0=no damage, read-out: Percentage damage caused to weed species, post-emergence, SETFA; for pest or weed control at 1000 g/ha: 312 h, 1,000 g/ha. The procedure:
as §1, with “for 8 days” for “for one day”, “grown on” for “grown”, “in a” for “in the”

The test system of assay [12] is Solanum nigrum (SOLNI). Described as above. The following applies: evaluated after 13 days, 100=total damage, 0=no damage, read-out: Percentage damage caused to weed species, post-emergence, SOLNI; for pest or weed control at 1000 g/ha: 312 h, 1,000 g/ha. The procedure:
as §1, with “for 8 days” for “for one day”, “grown on” for “grown”, “in a” for “in the”

The structures appear in SMILES notation.

As to `COC(=O)c1nc(Cl)c(F)c(NCc2ncccc2Cl)c1Br` [Compound 32-29, 3-Bromo-6-chloro-4-[(3-chloro-pyridin-2-ylmethyl)-amino]-5-fluoro-pyridine-2-carboxylic acid methyl ester], the pest or weed control at 250 g/ha in assay [1] (312 h, 250 g/ha) was 10%; in assay [2] (312 h, 250 g/ha), 90%; in [3] (312 h, 250 g/ha) it was 10%; in [4] (312 h, 250 g/ha) it was 70%; in the assay with Setaria faberi (SETFA) [5] (312 h, 250 g/ha), 0%; in the assay with Solanum nigrum (SOLNI) [6] (312 h, 250 g/ha), 80%. Moreover, the pest or weed control at 250 g/ha in assay [7] (312 h, 250 g/ha) came to 20%; in assay [8] (312 h, 250 g/ha) it was 70%; in [9] (312 h, 250 g/ha), 50%; in assay [10] (312 h, 250 g/ha), 60%; in the assay with Setaria faberi (SETFA) [11] (312 h, 250 g/ha) it was 60%; with Solanum nigrum (SOLNI) [12] (312 h, 250 g/ha), 80%.
For the compound `COC(=O)c1nc(Cl)cc(NCc2ncccc2Cl)c1Br` [Compound 32-17, 3-Bromo-6-chloro-4-[(3-chloro-pyridin-2-ylmethyl)-amino]-pyridine-2-carboxylic acid methyl ester], the pest or weed control at 1000 g/ha turned out to be 10% in [1]; 90% in [2]; 0% in [3]; 80% in assay [4]; 0% with Setaria faberi (SETFA) [5]; 80% with Solanum nigrum (SOLNI) [6]. Further, the pest or weed control at 1000 g/ha in assay [7] came out at 20%; in assay [8], 80%; in [9], 20%; in assay [10] it was 50%; in the assay on Setaria faberi (SETFA) [11] it was 50%; with Solanum nigrum (SOLNI) [12], 90%.
For `COC(=O)c1nc(Cl)c(F)c(NCc2ccccc2[N+](=O)[O-])c1Br` [Compound 15-29, 3-bromo-6-chloro-5-fluoro-4-[(2-nitrophenyl-methyl)-amino]-pyridine-2-carboxylic acid methyl ester], the pest or weed control at 1000 g/ha in [1] was determined as 90%; in assay [2], 90%; in assay [3] it was 70%; in assay [4], 100%; with Setaria faberi (SETFA) [5], 40%; in the assay on Solanum nigrum (SOLNI) [6] it was 90%. Further, the pest or weed control at 1000 g/ha in [7] was 50%; in assay [8] it was 100%; in assay [9], 50%; in assay [10], 70%; in the assay on Setaria faberi (SETFA) [11], 80%; in the assay with Solanum nigrum (SOLNI) [12], 100%.
For the compound `COC(=O)c1nc(Cl)cc(NCc2ccccc2Br)c1Cl` [Compound 72-2, 4-[(2-Bromophenyl-methyl)-amino]-3,6-dichloro-pyridine-2-carboxylic acid methyl ester], the pest or weed control at 1000 g/ha worked out at 30% in assay [1]; 90% in assay [2]; 10% in [3]; 80% in [4]; 30% in the assay on Setaria faberi (SETFA) [5]; 100% in the assay with Solanum nigrum (SOLNI) [6]. For the same compound, the pest or weed control at 1000 g/ha in assay [7] came to 20%; in assay [8] it was 100%; in assay [9], 10%; in assay [10], 70%; in the assay on Setaria faberi (SETFA) [11] it was 70%; in the assay on Solanum nigrum (SOLNI) [12] it was 100%.
As to `COC(=O)c1nc(Cl)cc(NCc2cccs2)c1Cl` [Compound 75-2, 3,6-Dichloro-4-(thiophen-2-ylmethylamino)-pyridine-2-carboxylic acid methyl ester], the pest or weed control at 1000 g/ha stood at 70% in assay [1]; 100% in assay [2]; 60% in assay [3]; 90% in assay [4]; 80% in the assay with Setaria faberi (SETFA) [5]; 100% in the assay with Solanum nigrum (SOLNI) [6]. Also, the pest or weed control at 1000 g/ha in assay [7] came out at 60%; in [8], 100%; in assay [9] it was 70%; in [10], 70%; in the assay on Setaria faberi (SETFA) [11] it was 80%; in the assay with Solanum nigrum (SOLNI) [12], 100%.
As for `COC(=O)c1nc(Cl)c(Cl)c(NCc2ccccc2[N+](=O)[O-])c1C(F)(F)F` [Compound 15-444, 5,6-dichloro-4-[(2-nitrophenyl-methyl)-amino]-3-trifluoromethyl-pyridine-2-carboxylic acid methyl ester], the pest or weed control at 1000 g/ha in assay [1] is 0%; in [2], 30%; in assay [3], 0%; in [4] it was 50%; in the assay on Setaria faberi (SETFA) [5], 0%; in the assay on Solanum nigrum (SOLNI) [6], 30%. Also, the pest or weed control at 1000 g/ha in [7] came out at 10%; in [8], 100%; in assay [9], 50%; in assay [10], 50%; in the assay with Setaria faberi (SETFA) [11], 40%; in the assay with Solanum nigrum (SOLNI) [12], 90%.
